Measurements from patent publication US11427615B2, “Peptide compound and application thereof, and composition containing peptide compound” (XDCEXPLORER (SHANGHAI) CO., LTD., priority 2017, dated 2022).
Where two headings read alike, the source gives them in different places. Non-standard residues stand in square brackets, D forms with d. Residues, ends and D or L forms follow the SMILES beside them. Groups on a side chain read outwards from the residue. *: point of attachment. X5 = CCCCCCCCCCCC(=O)NCCOCCOCCOCCOCCOCCSSCCCC(=O)*; dPhe(2,4-Cl2) = N[C@H](Cc1ccc(Cl)cc1Cl)C(=O)O; Oic = O=C(O)[C@@H]1C[C@@H]2CCCC[C@@H]2N1; PEG8 = NCCOCCOCCOCCOCCOCCOCCOCCOCCC(=O)O; Pro(4,4-F2) = O=C(O)[C@@H]1CC(F)(F)CN1; dAla(2-furyl) = N[C@H](Cc1ccco1)C(=O)O; Arg(Me) = CNC(=N)NCCC[C@H](N)C(=O)O; Palmitoyl = CCCCCCCCCCCCCCCC(=O)*; Hyp = O=C(O)[C@@H]1C[C@@H](O)CN1; Pip = O=C(O)[C@@H]1CCCCN1; Ac6c = NC1(C(=O)O)CCCCC1; azaGly = NNC(=O)O

Experiments:
[1] = target: T1, human kiss1 receptor (GPR54) (Homo sapiens, UniProt Q969F8); assay: Kiss1 receptor (GPR54) binding activity of agonists, FRET detection in NFAT-bla CHO-K1 cells; type: cell-based
T1 construct: host or cells: NFAT-bla CHO-K1 cells (Chinese hamster ovary), purchased recombinant cell line
T1 sequence (Q969F8 whole entry): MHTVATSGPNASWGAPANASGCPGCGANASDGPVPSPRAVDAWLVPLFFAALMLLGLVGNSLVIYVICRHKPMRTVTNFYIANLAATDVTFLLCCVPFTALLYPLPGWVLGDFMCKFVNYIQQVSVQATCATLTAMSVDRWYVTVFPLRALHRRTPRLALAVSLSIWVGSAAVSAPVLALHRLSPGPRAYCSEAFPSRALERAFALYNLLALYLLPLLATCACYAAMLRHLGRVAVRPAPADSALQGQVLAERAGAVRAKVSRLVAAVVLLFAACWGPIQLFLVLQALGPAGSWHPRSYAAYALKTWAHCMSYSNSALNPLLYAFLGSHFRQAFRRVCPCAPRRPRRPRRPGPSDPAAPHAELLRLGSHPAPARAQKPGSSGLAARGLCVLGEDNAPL

[2] = Plasma stability, LC-MS/MS; type: in vitro ADME; conditions: rat plasma, 37° C., final concentration 500 ng/ml, time points 0 minutes, 1, 2 and 4 hours; calculated half-life; read-out: Rat plasma (T½ (h)) (converted)
Experimental: Effect Embodiment 2 Experimental Data on Plasma Stability of Some Compounds
1. Preparation of 50 mM Phosphate Buffer:
The 5.750 g Na2HPO4, 1.141 g NaH2PO4. and 4.095 g NaCl (Shanghai Titan) weighed was dissolved in 1000 mL ultrapure water and the pH was adjusted to 7.4 to give 50 mM phosphate buffer containing 70 mM NaCl. The prepared phosphoric acid buffer solution was stored in the refrigerator at 4° C. and was valid for one week.
2. Preparation of compound stock solution:
1). 5 mg/mL of test compound: 5 mg of compound was weighted and dissolved in 1 mL of DMSO.
2). 20 mM control: 2.728 mg of Fuka was dissolved in 0.5 mL of DMSO. 3.878 mg of benzalkonium bromide was dissolved in 0.5 mL of DMSO (Amresco).
3. Preparation of experimental plasma:
The frozen plasma (human: Shanghai wise chemistry; Rats and mice: Shanghai Sciple-Bikai; Dogs and monkeys: Suzhou Xishan Zhongke) were taken out of the −80° C. refrigerator, immediately placed in a 37° C. water bath, slightly shaken to melt it, then the thawed plasma was poured into a centrifuge tube, centrifuged at 3000 rpm for 8 min, and the supernatant was taken for experiments. The pH value of plasma was detected by a pH Meter & Sensor (METTLER TOLEDO). Only plasma with a pH value between 7.4 and 8 was used in the experiment. The plasma was placed on an ice bath for later use.
4. Preparation of administration solution:
1). 125 µg/ml test compound solution: 5 μL of 5 mg/mL test compound (see step 2) was added into 195 μL DMSO; 500 μM control solution: 20 mM control stock solution (see step 2) was added to 195 μL DMSO.
2). 0.5% BSA phosphate buffer solution: 0.05 g BSA was added to 10 mL phosphate buffer solution (see step 1);
3). 5 µg/ml of test compound administration solution: 40 μL of 125 μg/mL of test compound solution was added into 960 μL 0.5% BSA phosphate buffer solution, stirred and mixed evenly, and the administration solution was preheated in a 37° C. water bath for 5 minutes.
20 μM reference substance administration solution: 40 μL of 500 μM reference substance administration solution was added into 960 μL 0.5% BSA phosphate buffer solution, stirred and mixed evenly, and the administration solution was preheated in a 37° C. water bath for 5 minutes.
5. 10 μL of 5 μg/mL of the test compound and 20 μM of the control substance administration solution were respectively added to the wells set at different time points (0 minutes, 1 hour, 2 hours and 4 hours) on the 96-well plate, and the number of duplicate samples was 3.
6. 500 μL of ACN (IS) containing 5% FA was added to the well set at 0 minute hour, then 90 μL of plasma was added, after mixing, sealing film was pasted and placed at 4° C. (number of duplicate samples was 3).
7. 90 μL of plasma was added to the wells with set time points of 1 hour, 2 hours and 4 hours respectively, the number of duplicate samples was 3, and timing was started (the final concentration of the test compound was 500 ng/ml; The control was 2 μM).
9. All samples (0 minutes, 1 hour, 2 hours and 4 hours) at different time points on a 96-well plate were shaken for 10 minutes at 600 rpm/min on an oscillator (MTS 2/4, IKA), and then the samples were centrifuged for 15 minutes at 5594×g in a centrifuge (Multifuge×3R, thermo Fisher).
10. 150 μL of supernatant was taken from the centrifuged sample and sent to LC-MS/MS for analysis (conventional polypeptide LC-MS/MS analysis method).

[3] = GPR54, measured according to the method of effect Embodiment 1, preliminary data, read-out: Preliminary measurement data (GPR54) EC50

EC50 [1, 3] [nM]	half-life at 500 ng/ml [2] [h]	EC50 ([1]; NFAT-bla CHO-K1 cells that express human kiss1 receptor (GPR54), FRET, cells cultured with compound for 4 hours, read-out: GPR54 EC50/nM) [nM]	Structure (SMILES)
0.018	27.5	–	CCCCCCCCCCCCCCCC(=O)NCCOCCOCCOCCOCCOCCOCCOCCOCCC(=O)NCC(=O)NCC(=O)N[C@H](Cc1ccc(O)cc1)C(=O)N1C[C@H](O)C[C@H]1C(=O)N[C@@H](CC(N)=O)C(=O)N[C@H](C(=O)N[C@@H](Cc1ccccc1)C(=O)N[C@H](Cc1ccco1)C(=O)N[C@@H](CC(C)C)C(=O)N[C@@H](CCCNC(=N)NC)C(=O)N[C@@H](Cc1c[nH]c2ccccc12)C(N)=O)[C@@H](C)O [YA-288, Palm-PEG 8-Gly-Gly-D-Tyr-Hyp-Asn-Thr-Phe-(D-2Fua)-Leu-Arg(Me)-Trp-NH2] ({Palmitoyl-PEG8}-GG[dY][Hyp]NTF[dAla(2-furyl)]L[Arg(Me)]W-NH2)
0.39	2.65	–	CNC(=N)NCCC[C@H](NC(=O)[C@H](CC(C)C)NC(=O)C1(NC(=O)[C@H](Cc2ccccc2)NC(=O)[C@@H](NC(=O)[C@H](CC(N)=O)NC(=O)[C@@H]2CC(F)(F)CN2C(=O)[C@@H](Cc2ccco2)NC(C)=O)[C@@H](C)O)CCCCC1)C(=O)N[C@@H](Cc1c[nH]c2ccccc12)C(N)=O [YA-201, Ac-(D-2Fua)-Pro(diF)-Asn-Thr-Phe-A6c-Leu-Arg(Me)-Trp-NH2] (Ac-[dAla(2-furyl)][Pro(4,4-F2)]NTF[Ac6c]L[Arg(Me)]W-NH2)
0.04	3.64	–	CNC(=N)NCCC[C@H](NC(=O)[C@H](CC(C)C)NC(=O)NNC(=O)[C@H](Cc1ccccc1)NC(=O)[C@@H](NC(=O)[C@H](CC(N)=O)NC(=O)[C@@H]1C[C@@H]2CCCC[C@@H]2N1C(=O)[C@@H](Cc1ccc(O)cc1)NC(C)=O)[C@@H](C)O)C(=O)N[C@@H](Cc1c[nH]c2ccccc12)C(N)=O [YA-230, Ac-D-Tyr-Oic-Asn-Thr-Phe-azaGly-Leu-Arg(Me)-Trp-NH2] (Ac-[dY][Oic]NTF[azaGly]L[Arg(Me)]W-NH2)
0.03	6.67	–	CCCCCCCCCCCCCCCC(=O)NCCOCCOCCOCCOCCOCCOCCOCCOCCC(=O)NCCCC[C@H](NC(C)=O)C(=O)NCC(=O)NCC(=O)N[C@H](Cc1ccc(O)cc1)C(=O)N1C[C@H](O)C[C@H]1C(=O)N[C@@H](CC(N)=O)C(=O)N[C@H](C(=O)N[C@@H](Cc1ccccc1)C(=O)NNC(=O)N[C@@H](CC(C)C)C(=O)N[C@@H](CCCNC(=N)NC)C(=O)N[C@@H](Cc1c[nH]c2ccccc12)C(N)=O)[C@@H](C)O [YA-157, Ac-Lys(Palm-PEG8)-Gly-Gly-(D-Tyr)-Hyp-Asn-Thr-Phe-azaGly-Leu-Arg(Me)-Trp-NH2] (Ac-K([PEG8-Palmitoyl])GG[dY][Hyp]NTF[azaGly]L[Arg(Me)]W-NH2)
0.132	2.05	–	CNC(=N)NCCC[C@H](NC(=O)[C@H](CC(C)C)NC(=O)C1(NC(=O)[C@H](Cc2ccccc2)NC(=O)[C@@H](NC(=O)[C@H](CC(N)=O)NC(=O)[C@@H]2C[C@@H](O)CN2C(=O)[C@@H](Cc2ccc(O)cc2)NC(C)=O)[C@@H](C)O)CCCCC1)C(=O)N[C@@H](Cc1c[nH]c2ccccc12)C(N)=O [YA-175, Ac-D-Tyr-Hyp-Asn-Thr-Phe-A6c-Leu-Arg(Me)-Trp-NH2] (Ac-[dY][Hyp]NTF[Ac6c]L[Arg(Me)]W-NH2)
0.021	5.32	–	CNC(=N)NCCC[C@H](NC(=O)[C@H](CC(C)C)NC(=O)NNC(=O)[C@H](Cc1ccccc1)NC(=O)[C@@H](NC(=O)[C@H](CC(N)=O)NC(=O)[C@@H]1CCCCN1C(=O)[C@@H](Cc1ccc(Cl)cc1Cl)NC(C)=O)[C@@H](C)O)C(=O)N[C@@H](Cc1c[nH]c2ccccc12)C(N)=O [YA-182, Ac-[D-Phe(2,4-DiCl)]—(S-Pip)-Asn-Thr-Phe-azaGly-Leu-Arg(Me)-Trp-NH2] (Ac-[dPhe(2,4-Cl2)][Pip]NTF[azaGly]L[Arg(Me)]W-NH2)
0.03	10.1	0.03	CNC(=N)NCCC[C@H](NC(=O)[C@H](CC(C)C)NC(=O)NNC(=O)[C@H](Cc1ccccc1)NC(=O)[C@@H](NC(=O)[C@H](CC(N)=O)NC(=O)[C@@H]1C[C@@H](O)CN1C(=O)[C@@H](Cc1ccc(O)cc1)NC(C)=O)[C@@H](C)O)C(=O)N[C@@H](Cc1c[nH]c2ccccc12)C(N)=O [YA-3, Ac-(D-Tyr)-Hyp-Asn-Thr-Phe-azaGly-Leu-Arg(Me)-trp-NH2] (Ac-[dY][Hyp]NTF[azaGly]L[Arg(Me)]W-NH2)
0.025	15.6	–	CNC(=N)NCCC[C@H](NC(=O)[C@H](CC(C)C)NC(=O)NNC(=O)[C@H](Cc1ccccc1)NC(=O)[C@@H](NC(=O)[C@H](CC(N)=O)NC(=O)C1(NC(=O)[C@@H](Cc2ccco2)NC(C)=O)CCCCC1)[C@@H](C)O)C(=O)N[C@@H](Cc1c[nH]c2ccccc12)C(N)=O [YA-271, Ac-(D-2Fua)-A6c-Asn-Thr-Phe-azaGly-Leu-Arg(Me)-Trp-NH2] (Ac-[dAla(2-furyl)][Ac6c]NTF[azaGly]L[Arg(Me)]W-NH2)
0.045	44.4	–	CCCCCCCCCCCCCCCC(=O)NCCOCCOCCOCCOCCOCCOCCOCCOCCC(=O)NCC(=O)NCC(=O)N[C@H](Cc1ccc(O)cc1)C(=O)N1C[C@H](O)C[C@H]1C(=O)N[C@@H](CC(N)=O)C(=O)N[C@H](C(=O)N[C@@H](Cc1ccccc1)C(=O)NNC(=O)N[C@@H](CC(C)C)C(=O)N[C@@H](CCCNC(=N)NC)C(=O)N[C@@H](Cc1c[nH]c2ccccc12)C(N)=O)[C@@H](C)O [YA-156, Palm-PEG8-Gly-Gly-(D-Tyr)-Hyp-Asn-Thr-Phe-azaGly-Leu-Arg(Me)-Trp-NH2] ({Palmitoyl-PEG8}-GG[dY][Hyp]NTF[azaGly]L[Arg(Me)]W-NH2)
0.007	0.29	–	CCCCCCCCCCCC(=O)NCCOCCOCCOCCOCCOCCSSCCCC(=O)N[C@H](Cc1ccc(O)cc1)C(=O)N1C[C@H](O)C[C@H]1C(=O)N[C@@H](CC(N)=O)C(=O)N[C@H](C(=O)N[C@@H](Cc1ccccc1)C(=O)NNC(=O)N[C@@H](CC(C)C)C(=O)N[C@@H](CCCNC(=N)NC)C(=O)N[C@@H](Cc1c[nH]c2ccccc12)C(N)=O)[C@@H](C)O [YA-324, Dodecanoyl-(NH-PEG5-CH2CH2S)-(4-thiol-butanoyl)-(D-Tyr)-Hyp-Asn-Thr-Phe-azaG-Leu-Arg(Me)-Trp-NH2] (X5-[dY][Hyp]NTF[azaGly]L[Arg(Me)]W-NH2)
0.023	59	–	CCCCCCCCCCCCCCCC(=O)NCCOCCOCCOCCOCCOCCOCCOCCOCCC(=O)NCC(=O)NCC(=O)N[C@H](Cc1ccco1)C(=O)N1CC(F)(F)C[C@H]1C(=O)N[C@@H](CC(N)=O)C(=O)N[C@H](C(=O)N[C@@H](Cc1ccccc1)C(=O)NC1(C(=O)N[C@@H](CC(C)C)C(=O)N[C@@H](CCCNC(=N)NC)C(=O)N[C@@H](Cc2c[nH]c3ccccc23)C(N)=O)CCCCC1)[C@@H](C)O [YA-220, Palm-PEG8-Gly-Gly-D-3Fua-Pro(diF)-Asn-Thr-Phe-A6c-Leu-Arg(Me)-Trp-NH2] ({Palmitoyl-PEG8}-GG[dAla(2-furyl)][Pro(4,4-F2)]NTF[Ac6c]L[Arg(Me)]W-NH2)
0.016	12.7	–	CCCCCCCCCCCCCCCC(=O)NCCOCCOCCOCCOCCOCCOCCOCCOCCC(=O)N[C@H](Cc1ccc(O)cc1)C(=O)N1C[C@H](O)C[C@H]1C(=O)N[C@@H](CC(N)=O)C(=O)N[C@H](C(=O)N[C@@H](Cc1ccccc1)C(=O)NNC(=O)N[C@@H](CC(C)C)C(=O)N[C@@H](CCCNC(=N)NC)C(=O)N[C@@H](Cc1c[nH]c2ccccc12)C(N)=O)[C@@H](C)O [YA-298, Palm-PEG8-D-Tyr-Hyp-Asn-Thr-Phe-azaGly-Leu-Arg(Me)-Trp-NH2] ({Palmitoyl-PEG8}-[dY][Hyp]NTF[azaGly]L[Arg(Me)]W-NH2)
